Results from ChEMBL document CHEMBL1201862, “PubChem BioAssay data set” (2004).
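These data come from cells grown in 96-well plates and exposed to compound for 48 hours at five concentrations. GI50 = concentration required for 50% inhibition of growth.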 The source made the active and inactive calls. Cut-off read from the data, not from the text of the source: active = GI50 up to about 1.1 µM and inactive = higher.

Key:
Assay in all cases: NCI anticancer screen, dose series, 48 h
SNB-19 = system: SNB-19
NCI-H522 = system: NCI-H522
RXF 393 = system: RXF 393
T47D = system: T47D
Hs-578T = system: Hs-578T
HOP-92 = system: HOP-92
MDA-MB-435 = system: MDA-MB-435
HL-60 = system: HL-60
HCC 2998 = system: HCC 2998
OVCAR-5 = system: OVCAR-5
HT-29 = system: HT-29
UO-31 = system: UO-31
NCI/ADR-RES = system: NCI/ADR-RES
SNB-75 = system: SNB-75
SR = system: SR
SK-MEL-2 = system: SK-MEL-2
SF-295 = system: SF-295
SK-MEL-5 = system: SK-MEL-5
SF-268 = system: SF-268
MCF7 = system: MCF7

Row | Structure (SMILES) | GI50 (SNB-19) | GI50 (NCI-H522) | GI50 (RXF 393) | GI50 (T47D) | GI50 (Hs-578T) | GI50 (HOP-92) | GI50 (MDA-MB-435) | GI50 (HL-60) | GI50 (HCC 2998) | GI50 (OVCAR-5) | GI50 (HT-29) | GI50 (UO-31) | GI50 (NCI/ADR-RES) | GI50 (SNB-75) | GI50 (SR) | GI50 (SK-MEL-2) | GI50 (SF-295) | GI50 (SK-MEL-5) | GI50 (SF-268) | GI50 (MCF7)
1 | C=CN1CCN(c2ccccc2)P1(=O)Oc1ccccc1 (stereo not drawn) | > 100 µM (inactive) | 31.6 µM (inactive) | 42.5 µM (inactive) | 63.7 µM (inactive) | 33.7 µM (inactive) | 50.9 µM (inactive) | 90.6 µM (inactive) | > 100 µM (inactive) | > 100 µM (inactive) | > 100 µM (inactive) | 92.9 µM (inactive) | 20 µM (inactive) | 55.2 µM (inactive) | 16.4 µM (inactive) | > 100 µM (inactive) | 54.6 µM (inactive) | > 100 µM (inactive) | 87.7 µM (inactive) | > 100 µM (inactive) | > 100 µM (inactive)
2 | COc1cc(/C=C/c2sc3ccccc3[n+]2C)ccc1N(C)C | 12.9 µM (inactive) | 3.01 µM (inactive) | 16.6 µM (inactive) | 3.21 µM (inactive) | 41.3 µM (inactive) | 1.85 µM (inactive) | 3.32 µM (inactive) | 6.85 µM (inactive) | 21.8 µM (inactive) | 20.3 µM (inactive) | 17.9 µM (inactive) | < 0.01 µM (active) | > 10 µM (inactive) | > 10 µM (inactive) | 1.94 µM (inactive) | 2.32 µM (inactive) | 47.4 µM (inactive) | 4.14 µM (inactive) | 13.8 µM (inactive) | 4.45 µM (inactive)
3 | Cc1ccc(-c2cc(N)n(-c3nc4c([nH]3)c(=O)n(C)c(=O)n4C)n2)cc1 | 8.55 µM (inactive) | 29 µM (inactive) | 17.6 µM (inactive) | 4.76 µM (inactive) | 23 µM (inactive) | 12.8 µM (inactive) | 7.73 µM (inactive) | 5.04 µM (inactive) | 7.67 µM (inactive) | 8.05 µM (inactive) | 4.53 µM (inactive) | 2.78 µM (inactive) | 1.55 µM (inactive) | – | 2.43 µM (inactive) | 6.64 µM (inactive) | 2.69 µM (inactive) | 3.36 µM (inactive) | 3.59 µM (inactive) | 6.78 µM (inactive)
4 | Cc1cc(C)cc(Nc2cc(O)nc(O)n2)c1 | > 100 µM (inactive) | – | 90.4 µM (inactive) | 0.0649 µM (active) | > 100 µM (inactive) | > 100 µM (inactive) | > 100 µM (inactive) | > 100 µM (inactive) | > 100 µM (inactive) | > 100 µM (inactive) | > 100 µM (inactive) | > 100 µM (inactive) | > 100 µM (inactive) | 15.8 µM (inactive) | > 100 µM (inactive) | – | > 100 µM (inactive) | > 100 µM (inactive) | > 100 µM (inactive) | > 100 µM (inactive)
5 | CC1CC2OC(=N)C1(C#N)C2(C#N)C#N (stereo not drawn) | 34.8 µM (inactive) | 13.5 µM (inactive) | 16.1 µM (inactive) | 25.9 µM (inactive) | 33.8 µM (inactive) | 17.9 µM (inactive) | 34 µM (inactive) | – | 19.5 µM (inactive) | 21.6 µM (inactive) | 19.4 µM (inactive) | 24.5 µM (inactive) | 29.1 µM (inactive) | 11.5 µM (inactive) | 25.3 µM (inactive) | 20.3 µM (inactive) | 79.1 µM (inactive) | 10.4 µM (inactive) | 21.8 µM (inactive) | 28 µM (inactive)
6 | COc1cc2c3c(c1)CCCN3CCC2 | > 10 µM (inactive) | > 10 µM (inactive) | > 10 µM (inactive) | > 10 µM (inactive) | > 10 µM (inactive) | > 10 µM (inactive) | > 10 µM (inactive) | > 10 µM (inactive) | > 10 µM (inactive) | – | > 10 µM (inactive) | > 10 µM (inactive) | > 10 µM (inactive) | > 10 µM (inactive) | > 10 µM (inactive) | > 10 µM (inactive) | > 10 µM (inactive) | > 10 µM (inactive) | > 10 µM (inactive) | > 10 µM (inactive)
7 | C/C=C(\C)CC/C=C/CO[Si](C)(C)C(C)(C)C | > 100 µM (inactive) | > 100 µM (inactive) | > 100 µM (inactive) | > 100 µM (inactive) | > 100 µM (inactive) | – | > 100 µM (inactive) | 32.6 µM (inactive) | > 100 µM (inactive) | > 100 µM (inactive) | 42.5 µM (inactive) | > 100 µM (inactive) | > 100 µM (inactive) | > 100 µM (inactive) | 28.9 µM (inactive) | 35.4 µM (inactive) | 79.1 µM (inactive) | > 100 µM (inactive) | > 100 µM (inactive) | 40.1 µM (inactive)
8 | C=C1C(=O)OC2C1C(OC(=O)/C(C)=C/C)CC1(C)C(=O)CCC(=C)C21 (stereo not drawn) | – | 2.54 µM (inactive) | 2.83 µM (inactive) | 13.1 µM (inactive) | 27.8 µM (inactive) | 1.62 µM (inactive) | 8.2 µM (inactive) | 1.89 µM (inactive) | 9.73 µM (inactive) | 14.8 µM (inactive) | 4.88 µM (inactive) | 6.55 µM (inactive) | 6.89 µM (inactive) | 15.9 µM (inactive) | 2.06 µM (inactive) | 11.9 µM (inactive) | 18.5 µM (inactive) | 7.64 µM (inactive) | 10.7 µM (inactive) | 4.49 µM (inactive)
